Measurements as given in PMC10161260 (The Journal of antimicrobial chemotherapy, 2023).
Read-outs that look alike come from different tables or passages of the source. Values belong to the compound of their own block, whether it stands above or below them.

Tests used:
[1] = clinical; set-up: species or system human; details: in vivo; for Mean plasma concentration by 72 h (48 h after the second dose) / AUC0–120h in plasma / Cmax / Tmax: po
[2] = clinical; set-up: species or system human; details: in vivo; for Cmax: po
[3] = set-up: species or system human; details: in vivo
[4] = Rectal swab / rectal secretion drug concentrations after two oral doses in MSM; assay type: in vivo, human; details: for Time of peak mean concentration on rectal swabs: hours after first dose; for Mean concentration on rectal swabs at 48 h: 48 h after first dose (elvitegravir peak), geometric mean; for Concentration on rectal swabs by 120 h: LLOQ 1 ng/swab
[5] = assay type: in vivo, human; details: for Cmax in PBMCs: all participants, geometric mean (95% CI)
[6] = assay type: in vivo, human; details: for Mean peak concentration in rectal tissue: 48 h after the first dose; for Time of peak mean concentration in rectal tissue: after the first dose; for Time rectal tissue concentrations remained measurable after the second dose: in vivo
[7] = set-up: species or system human; details: in vivo; for Antiretroviral drug detection, glans swab / Antiretroviral drug detection, urethral swab: male, human
[8] = test system: HIV; details: cited from earlier work
[9] = stated as known, no reference given; cited from earlier work
[10] = cited from earlier work

- Mean plasma concentration by 72 h (48 h after the second dose) [1]: undetectable
- Time of peak mean rectal tissue emtricitabine concentration ([2]; male, human): 4 h
- Detected in urine specimens (tenofovir and emtricitabine together) ([3]; male, human): 273/276
- Time of peak mean concentration on rectal swabs [4]: 48 h
- Mean emtricitabine concentration on rectal swabs at 48 h (peak) ([4]; participants also receiving bictegravir): 57 ng/swab
- Mean emtricitabine concentration on rectal swabs at 48 h (peak) ([4]; participants also receiving boosted elvitegravir): 241 ng/swab
Structure (SMILES): Nc1nc(=O)n([C@@H]2CS[C@H](CO)O2)cc1F [emtricitabine]

- Tenofovir concentration in rectal tissue ([2]; male, human): less than 1 ng/mg
- Detected in urine specimens (tenofovir and emtricitabine together) ([3]; male, human): 273/276
- Time of peak mean concentration on rectal swabs [4]: 48 h
- Mean tenofovir concentration on rectal swabs at 48 h (peak) ([4]; not different between regimens): 16 ng/swab
Structure (SMILES): C[C@H](Cn1cnc2c(N)ncnc21)OCP(=O)(O)O [tenofovir]

- Cmax in PBMCs [5]: 552 (297–1026) fmol/10^6 PBMC
- Tmax in PBMCs ([5]; hours after first dose): 28 h
- Mean peak concentration in rectal tissue [6]: 15.3 fmol/mg
- Time of peak mean concentration in rectal tissue [6]: 48 h
- Time rectal tissue concentrations remained measurable after the second dose [6]: at least 96 h
Structure (SMILES): CC(Cn1cnc2c(N)ncnc21)OCP(=O)(O)OP(=O)(O)OP(=O)(O)O (stereo in doubt) [tenofovir diphosphate]

- AUC0–120h in plasma [1]: 44 472 (4341) ng × h/mL
- Mean plasma concentration by 72 h (48 h after the second dose) [1]: undetectable
- Cmax ([1]; male, human): 2010 ng/mL
- Tmax ([1]; male, human): 28 h
- Detection in penile secretions [7]: not consistently detected
- Antiretroviral drug detection, glans swab [7]: 9/80 (11%)
- Antiretroviral drug detection, urethral swab [7]: 14/68 (21%)
- AUC0–120h in rectal tissue [2]: 469.78 (321.92) ng × h/mg
- Tmax ([2]; male, human): 4 h
- concentration at 2 h ([2]; male, human): 1070 ng/g
- Cmax ([2]; male, human): 3310 ng/g
- Antiretroviral drug detection, urine ([3]; male, human): 4/73 (5%)
- Detected in urine specimens ([3]; male, human): 5%
- Mean concentration on rectal swabs at 48 h [4]: 1085 ng/swab
- Concentration on rectal swabs by 120 h [4]: undetectable in most rectal swabs
- Elvitegravir rectal swab concentration at 48 h relative to bictegravir ([4]; P = 0.029): over 500 times
- Time of peak mean concentration on rectal swabs [4]: 48 h
Structure (SMILES): COc1cc2c(cc1Cc1cccc(Cl)c1F)c(=O)c(C(=O)O)cn2[C@H](CO)C(C)C [elvitegravir]
- 95% protein-adjusted inhibitory concentration (PAIC95) [8]: 45 ng/mL
- Protein binding in plasma [9]: highly protein bound

- Plasma AUC0–120h of bictegravir relative to elvitegravir ([1]; human): more than twice
- AUC0–120h in plasma [1]: 94 437 (8748) ng × h/mL
- Mean plasma concentration 96 h after dosing ([1]; male, human, 96 h): 273 (95% CI: 164–456) ng/mL
- Cmax ([1]; male, human): 1770 ng/mL
- Tmax ([1]; male, human): 2 h
- Detection in penile secretions [7]: not consistently detected
- Antiretroviral drug detection, glans swab [7]: 2/71 (3%)
- Antiretroviral drug detection, urethral swab [7]: 3/71 (4%)
- AUC0–120h in rectal tissue [2]: 20.53 (5.14) ng × h/mg
- Mean rectal tissue concentration relative to PAEC95 ([2]; male, human): did not reach more than twice the PAEC95
- concentration at 2 h ([2]; male, human): 270 ng/g
- Cmax ([2]; male, human): 290 ng/g
- Urine concentration within 48 h after the second dose [3]: undetectable
- Antiretroviral drug detection, urine ([3]; male, human): 32/70 (46%)
- Detected in urine specimens ([3]; male, human): 46%
- Mean urine concentration ([3]; male, human): less than 1 μg/mL
- Mean concentration on rectal swabs at 48 h [4]: 2.1 ng/swab
- Concentration on rectal swabs by 120 h [4]: undetectable in most rectal swabs
Structure (SMILES): O=C(NCc1c(F)cc(F)cc1F)c1cn2c(c(O)c1=O)C(=O)N1[C@H]3CC[C@H](C3)O[C@@H]1C2 [bictegravir]
- 95% protein-adjusted effective concentration (PAEC95) [8]: 162 ng/mL
- Protein binding in plasma [9]: highly protein bound

Structure (SMILES): C[C@H]1CO[C@@H]2Cn3cc(C(=O)NCc4ccc(F)cc4F)c(=O)c(O)c3C(=O)N12 [cabotegravir]
- Tissue-to-plasma ratio [10]: low tissue-to-plasma ratio

- Cmax in PBMCs [5]: 7549 (6528–8729) fmol/10^6 PBMC
- Tmax ([5]; male, human, PBMCs, oral, 200 mg): 26 h
- Mean peak concentration in rectal tissue [6]: 64.1 fmol/mg
- Time of peak mean concentration in rectal tissue [6]: 48 h
- Time rectal tissue concentrations remained measurable after the second dose [6]: at least 96 h
Structure (SMILES): Nc1nc(=O)n([C@@H]2CS[C@H](COP(=O)(O)OP(=O)(O)OP(=O)(O)O)O2)cc1F [emtricitabine triphosphate]
